{"source": "patent US20250064807A1", "about": "“Promoting Hair Growth and Treatment of Hair Loss or Excessive Hair Shedding” (Samson Clinical Pty Ltd, priority 2017, published 2025)", "key": {"[1]": {"assay": "Minoxidil serum levels after a single sublingual dose (Example 7)", "conditions": "for minoxidil in the serum after 2 hours: single sublingual dose 0.45 mg"}, "[2]": {"assay": "Assessment of sublingual minoxidil on patient blood pressure (Example 5)", "conditions": "2.5 mg sublingual troche, 5 individuals, monitored 6 hours post administration"}, "[3]": {"tested_on": "men with MPHL", "conditions": "cited from earlier work"}, "[4]": {"conditions": "for minoxidil in serum samples at steady state: 0.45 mg sublingually daily for a minimum of 6 weeks", "experimental": "(§1) Hair counts were performed on dermatoscopic images taken at baseline and after 6 weeks. […] Steady state serum levels were measured after 8 weeks of daily dosing. 13 patients had hair counts performed."}, "[5]": {"tested_on": "men and women with AGA", "assay": "Hair regrowth by macrophotography hair counts and global photography (Example 7)", "assay_type": "in vivo, human", "procedure": "Hair counts were performed on dermatoscopic images taken at baseline and after 6 weeks. […] Steady state serum levels were measured after 8 weeks of daily dosing."}, "[6]": {"conditions": "cited from earlier work; for mean serum concentration after topical application: scalp, twice daily; for peak serum concentration: one hour post-dose"}, "[7]": {"conditions": "cited from earlier work"}, "[8]": {"tested_on": "women", "assay": "Hair count after 12 weeks of daily sublingual minoxidil troche (Example 6)", "assay_type": "in vivo, human", "conditions": "individual patients 1-3, listed as sublingual minoxidil"}, "[9]": {"assay": "Stability and beyond use of minoxidil and compounded dosage forms", "assay_type": "physicochemical", "conditions": "110° C. for 30 minutes"}, "[10]": {"conditions": "for blood pressure after first dose / at time of peak concentration: single sublingual dose 0.45 mg; for adverse events / side effects: sublingual minoxidil 0.45 mg, b166: 30 patients, 2 to 12 months", "experimental": "as §1"}, "[11]": {"tested_on": "patients with FPHL or MPHL", "assay": "Randomized double-blind study of 0.45 mg sublingual minoxidil, week 8 interim hair assessments (Example 8)", "assay_type": "in vivo, human", "procedure": "Participants receive study medication for 24 weeks followed by a follow-up visit 4 weeks later.\nThe aim is to enroll 40 participants.\nNumber of participants completed Week 8: 12 (2 females, 10 males). […] This timepoint represents a third of the planned treatment period for the study (24 weeks). Data from these 12 participants have been analysed at the 8 week mark. Analysis was performed blind as the study is still ongoing.\nThe minimum criteria for hair loss severity in female participants is a Grade 2 and maximum is Grade 5. ISA at Screening was Sinclair Scale 2 and 3 for each female participant. […] As the study is ongoing and medication blind still stands, the final outcome of change in hair density (at Week 24) cannot be concluded in this report. The minimum criteria for enrolment for male participants is Grade III-Vertex and maximum is VI.\nStandardized global photography are taken at Study Weeks 0 (prior to dispensing of medication) and 8. Subsequent Week 16, 24 and 28 visits will also include global photography. A vertex and frontal scalp photograph is taken from a fixed height with a dedicated SLR camera. Current collated global photographs for all 12 patients were assessed by a blinded assessor. Comparison photographs between Baseline and Week 8 was provided to the designated blinded assessor.\nInitial assessment of Dermatology Life Quality Index (DLQI) for males and Women's AGA Quality of Life Questionnaire (WAA-QOL): Responses by female participants was generally more negative corresponding to a higher score at both Baseline and Week 8 visits. The impact on Quality of Life was more pronounced in comparison to the male participants. […] A full score of 38 represented dissatisfaction with current hair growth. The mean score was 25 (SD: 2.19) at Week 0 and 24.7 (SD: 4.08) at Week 8. The median score from all 10 male participants was 24.5 and 25 respectively. Both female patients reported an average of Grade 3 with the Sinclair Scale (FIG. 1 above) at Baseline visit and subsequent Week 8 visit. This was consistent with the Investigator's grade of their hair loss severity."}, "[12]": {"tested_on": "women aged 20-68 with Sinclair stages 2-5 FPHL", "assay": "Head to head study topical 5% minoxidil once daily vs oral minoxidil 1 mg daily, 24 weeks (data on file)", "assay_type": "in vivo, human", "conditions": "for additional hairs on scalp from increase in hair density: scalp area 630 cm^2; for mean increase in terminal hair count: 24 weeks"}, "[13]": {"conditions": "0.45 mg sublingually daily, minimum 6 weeks, 13 patients"}, "[14]": {"conditions": "0.45 mg sublingually once daily"}, "[15]": {"conditions": "0.25 mg sublingual troche daily, 12 weeks"}, "[16]": {"conditions": "0.25 mg sublingual troche daily"}, "[17]": {"conditions": "30 patients, sublingual minoxidil for between 2 and 12 months"}, "[18]": {"conditions": "Baseline vs Week 8, blinded assessor, blind not broken"}}, "note": "Where “and” joins values, the source holds several entries; their conditions need not be identical. Equal entries are not always repeated. Entries after “also recorded” stand apart in the source; their conditions may differ. Where two headings read alike, the source gives them in different places."}
{"compound": "Nc1cc(N2CCCCC2)nc(N)[n+]1[O-]", "note": "[minoxidil, 2,4-Diamino-6-piperidinopyrimidine 3-oxide]", "values": [{"measurement": "minoxidil in the serum after 2 hours", "setting": "[1]", "value": "no detectable minoxidil; also recorded: undetectable"}, {"measurement": "minoxidil in the serum after 2 hours", "setting": "[1]; listed as sublingual minoxidil", "value": "no detectable minoxidil"}, {"measurement": "circulating minoxidil after 1 hour", "setting": "[1]; sublingual dosing", "value": "undetectable"}, {"measurement": "adverse symptoms, postural hypotension or change in blood pressure", "setting": "[2]", "value": "No adverse symptoms, postural hypotension or change in blood pressure was noted"}, {"measurement": "men with MPHL with arrest of hair loss or mild to moderate hair regrowth", "setting": "[3]; applied topically", "value": "approximately 60%"}, {"measurement": "average increase in hair count", "setting": "[3]; topical, 5% concentration, 12 months", "value": 12.3, "unit": "%"}, {"measurement": "minoxidil in serum samples at steady state", "setting": "[4]", "value": "No minoxidil was detected"}, {"measurement": "minoxidil in serum samples at steady state", "setting": "[4]; listed as sublingual minoxidil", "value": "not detected"}, {"measurement": "accumulation with continuous dosing", "setting": "[4]; continuous sublingual dosing", "value": "does not accumulate"}, {"measurement": "change in hair counts on frontal and vertex areas, all patients", "setting": "[5]; 0.45 mg sublingually daily, 6 weeks, 13 patients", "value": "increased terminal hairs; also recorded: increase in hair counts"}, {"measurement": "hair density, clinic assessment", "setting": "[5]; 0.45 mg sublingually daily, minimum 6 weeks, 2 patients", "value": "moderate increase (+2)"}, {"measurement": "mean increase in frontal scalp terminal hairs", "setting": "[5]; [13]", "value": 69.13, "unit": "hairs/cm^2"}, {"measurement": "mean increase in vertex scalp terminal hairs", "setting": "[5]; [13]", "value": 97.38, "unit": "hairs/cm^2"}, {"measurement": "range of increase in frontal scalp terminal hairs", "setting": "[5]; [13]", "value": "4-133 hairs/cm^2"}, {"measurement": "range of increase in vertex scalp terminal hairs", "setting": "[5]; [13]", "value": "31-253 hairs/cm^2"}, {"measurement": "hair regrowth compared with topical or oral minoxidil", "setting": "[5]; [14]", "value": "greater and detected earlier"}, {"measurement": "increase from baseline in hair count on the vertex scalp", "setting": "[5]; [14]", "value": 52.5, "unit": "%"}, {"measurement": "increase from baseline in hair count over the frontal scalp", "setting": "[5]; [14]", "value": 36.5, "unit": "%"}, {"measurement": "hair regrowth compared with topical or oral minoxidil", "setting": "[5]; 0.45 mg sublingually once daily, listed as sublingual minoxidil", "value": "grows more hair"}, {"measurement": "midline hair density, blinded assessment of global photography", "setting": "[5]; 0.45 mg sublingually, 8 weeks, 5 of the patients", "value": "slight increase"}, {"measurement": "scalp global photographs at 6 weeks", "setting": "[5]; 0.45 mg sublingually, all patients", "value": "either mild or moderate improvement"}, {"measurement": "mean serum concentration after topical application", "setting": "[6]; 2% minoxidil (20 mg/ml)", "value": 0.7, "unit": "ng/mL"}, {"measurement": "mean serum concentration after topical application", "setting": "[6]; 5% minoxidil (50 mg/ml)", "value": 1.8, "unit": "ng/mL"}, {"measurement": "absorption through the gastrointestinal tract", "setting": "[6]; in vivo, po", "value": "> 90", "unit": "%"}, {"measurement": "peak serum concentration", "setting": "[6]; oral dose 2.5 mg", "value": 18.5, "unit": "ng/mL"}, {"measurement": "peak serum concentration", "setting": "[6]; oral dose 5 mg", "value": 41, "unit": "ng/mL"}, {"measurement": "highest serum level recorded", "setting": "[6]; topical application", "value": 18.2, "unit": "ng/mL"}, {"measurement": "effect on blood pressure in hypertensive patients", "setting": "[7]; oral, 5 to 100 mg daily", "value": "profound reduction in blood pressure"}, {"measurement": "effect on blood pressure of normotensive individuals", "setting": "[7]; oral, 5 to 100 mg daily", "value": "minimal effect"}, {"measurement": "effect on blood pressure or pulse rate", "setting": "[7]; topical", "value": "minimal effect"}, {"measurement": "serum concentration threshold for any hemodynamic response", "setting": "[7]; twelve hour steady state intravenous infusions (Ferry et al., 1996)", "value": 20, "unit": "ng/mL"}, {"measurement": "terminal hair count at 12 weeks (figure legend)", "setting": "[8]; [15]", "value": "123 and 186 and 71"}, {"measurement": "vellus hair count at 12 weeks", "setting": "[8]; [15]", "value": "6 and 13"}, {"measurement": "total hair count at 12 weeks", "setting": "[8]; 0.25 mg sublingual troche daily, 12 weeks, scalp section", "value": "129 and 199 and 84"}, {"measurement": "increase in total hair count from baseline to 12 weeks", "setting": "[8]; [16]", "value": "21 hairs and 32 hairs and 23 hairs"}, {"measurement": "percent increase in total hair count from baseline to 12 weeks", "setting": "[8]; [16]", "value": "19.4% and 19.2% and 37.7%"}, {"measurement": "Hair Count at week 12", "setting": "[8]; Table 1, terminal hairs, 0.25 mg sublingual troche daily", "value": "71 and 123 and 186"}, {"measurement": "Percentage increase", "setting": "[8]; Table 1, week 12 vs baseline terminal hair count", "value": "42% and 23% and 23.2%"}, {"measurement": "thermal stability", "setting": "[9]", "value": "stable"}, {"measurement": "adverse events at Week 8 visit", "setting": "0.45 mg sublingual once daily, 12 participants, blind not broken", "value": "No significant adverse events"}, {"measurement": "blood pressure readings, day of randomization vs Week 8", "setting": "12 participants", "value": "not significant"}, {"measurement": "respiratory rate and tympanic temperature", "setting": "12 participants", "value": "within normal range"}, {"measurement": "safety blood profile", "setting": "Week 8, 12 participants", "value": "within the normal range"}, {"measurement": "biochemical abnormality", "setting": "[10]; [17]", "value": "No biochemical abnormality was detected"}, {"measurement": "hypertrichosis, tachycardia, fluid retention or postural hypotension", "setting": "[10]; [17]", "value": "No patient developed hypertrichosis, tachycardia, fluid retention or postural hypotension"}, {"measurement": "mean blood pressure", "setting": "[10]; [17]", "value": "no reduction"}, {"measurement": "blood pressure after first dose / at time of peak concentration", "setting": "[10]", "value": "unaffected"}, {"measurement": "blood pressure after first dose / at time of peak concentration", "setting": "[10]; listed as sublingual minoxidil", "value": "no change"}, {"measurement": "adverse events / side effects", "setting": "[10]", "value": "No adverse events were noted"}, {"measurement": "adverse events / side effects", "setting": "[10]; listed as sublingual minoxidil", "value": "No side effects were reported"}, {"measurement": "Investigator scalp assessment, Sinclair Scale, change at Week 8", "setting": "[11]; 0.45 mg sublingual once daily, individual female participants, blind not broken, listed as sublingual minoxidil", "value": "slight increase from grade 3 to 2; also recorded: no change"}, {"measurement": "Men's Hair Growth Questionnaire median score at Week 8", "setting": "[11]; 10 male participants", "value": 25}, {"measurement": "Men's Hair Growth Questionnaire scores, Week 0 vs Week 8", "setting": "[11]; 10 male participants", "value": "No significant difference"}, {"measurement": "Men's Hair Growth Questionnaire mean score at Week 8", "setting": "[11]; 10 male participants, full score 38 = dissatisfaction", "value": "24.7 (SD: 4.08)"}, {"measurement": "participants (of 12) whose assessment suggests a slight to moderate increase in hair density", "setting": "[11]; [18]", "value": "Eight"}, {"measurement": "participants (of 12) whose global photography suggests a decrease in hair density", "setting": "[11]; [18]", "value": 2, "unit": "participants"}, {"measurement": "patient reported Sinclair Scale grade at Week 8 (average)", "setting": "[11]; both female patients, same at Baseline", "value": 3, "unit": "Grade"}, {"measurement": "additional hairs on scalp from increase in hair density", "setting": "[12]; 7 hair/cm^2 increase (topical group)", "value": 4600, "unit": "hairs"}, {"measurement": "additional hairs on scalp from increase in hair density", "setting": "[12]; 27 hair/cm^2 increase (oral group)", "value": "17,000 hairs"}, {"measurement": "mean increase in terminal hair count", "setting": "[12]; oral minoxidil 1 mg daily", "value": "27 /cm^2"}, {"measurement": "mean increase in terminal hair count", "setting": "[12]; topical 5% minoxidil once daily", "value": "7 /cm^2"}]}
